Results on 7 compounds are retold here after patent US6025387A, “Gastroprotective flavone/flavanone compounds with therapeutic effect on inflammatory bowel disease” (Dong a Pharmaceutical Co., Ltd., priority 1996, dated 2000).

Test [1] deals with TNBS-induced colitis. The test can be described thus: TNBS-induced colitis model, intracolonic (rectal) administration. It counts as in vivo, male SD rats. As to conditions: once a day for 13 days, rat. The method, then:
(§1) Experiment on the Model of Inflammatory Bowl Diseases Induced with TNBS
(§2) The modified method of Shibata et al. (Dig. Endosc. 1993, 5: 13) was used. 7 week-aged male SD rats were fasted for a day, and the rats were put under anesthesia and canula (diameter 3 mm) was inserted into the anus to the depth of 8 cm. 25 mg/mL of TNBS (Trinitrobenzene sulfonic acid) dissolved in 50% ethanol solution was injected to each rat and the rats were positioned at feature of tail up for 1 minute. The solution flowing out was removed and the rats were once washed with 1.5 mL of saline solution. After colitis was induced, the compound was administered orally or intracolonically once a day for 13 days. For control, mesalazine (5-amino salicylic acid) was used for oral administration and prednisolone was used for rectal administration. At 14th day of experiment, each group of the rats were put under ether anesthesis, the colon was extracted and the degree of adhesion and extension of the large intestine were measured and their lesion scores were recorded. After 1% formalin solution was injected to the cavity of the extracted colon to inflate, the both ends of it were bonded with each other and it was all-fixed in 1% formalin solution for 2 hours. The all-fixed colon was cut to lengthy direction and washed to remove surrounding fat tissues and connective fissaes. After cecum was removed, the weight of the colon and the rectum was measured, and the area of ulcer lesion, and microscopic lesion were measured to mark scores according to the criterion. And they were fixed in 10% neutral formalin solution, and the tissue examination of lesion site was performed by general method to mark scores according to the criterion.
Macroscopic evaluation: We measured the number and the width of the ulcer and lesion area formed in the large intestine, by using modified Wallace's method (Can. J. Physiol. Pharmacol., 1988, 66: 422). We scored the lesion examined with the naked eye and compared the average value of each group. The standards of lesion scores as criterion of the damage of the colon by Wallace's method is as followings.
(§3) (0: normal, non-damaged, 1: congestion without ulcer 2: congestion and thickening of intestinal wall without ulcer, 3: an ulcer lesion without thickening of intestinal wall, 4: more than two ulcerous/inflammatory lesion, 5: more than two ulcerous/inflammatory lesion or the length of ulcerous/inflammatory lesion is more than 1 cm, 6-10: when the length of lesion is over 2 cm, one point increases everytime 1 cm of the length of ulcerous/inflammatory increases, for example, when the ulcer length is 3 cm, the point is 7.)

The test system of test [2] is TNBS-induced colitis. Put plainly: TNBS-induced colitis model, oral administration. The test is classed as in vivo, male SD rats. To be noted: for lesion scores: once a day for 13 days, rat; for adhesion degree / dilation and extention degree: score 0-3, rat. The method, then: as §1
as §2, with “7” for “The modified method of Shibata et al. (Dig. Endosc. 1993, 5: 13) was used. 7”
Clinical symptoms: Daily, we observed clinical symptoms and survival of the animals. And we measured the weight of the animals at the beginning day, third and eighth day of the experiment.
(0: non-adhesion, 1: adhesion exists but easily taken off by gloved hand, 2: more severe adhesion than 1 exists but easily taken off by scissors, 3: very severe adhesion exists, so it is difficult to be taken off by scissors because of possibility of its perforation.)
Degree of thickening and extension of the large intestine: We marked scores of the degree of thickness and extension of the large intestine according to the criterion, following the method of Kim et al., and compared with the average value of each group.
(0: lesion site non-existing, 1: a few degree of lesion, 2: intermediate degree of lesion, 3: severe degree of lesion)
We scored the lesion examined with the naked eye and compared the average value of each group. The standards of lesion scores as criterion of the damage of the colon by Wallace's method is as followings.
as §3
Microscopic evaluation: We trimmed the colon giving 3 cm interval from the rectum to the cecum, including the site of lesion examined with the naked eye, to make at least 4 specimens per an individual. […] When the lesion can not be examined with the naked eye, we trimmed the other specimen which has the lesion, with 3 cm interval.

The test system of test [3] is chronic gastritis induced with acetic acid. Put plainly: Model of chronic gastritis induced with acetic acid. To be noted: once a day for 21 days, rat. It counts as in vivo, SD male rat. How it is done: Experiment on the Model of Chronic Gastritis Induced with Acetic Acid
From the next day of the surgical operation, the compound was orally administered once a day for 21 days. After 21 days, the stomach was extracted under ether anesthesis, dipped in 1% formalin solution and the area of gastric lesion was measured. […] An pathological tissue autopsy was carried out for the prepared specimen.

In another test the target is T1, 5-lipoxygenase (Rattus norvegicus, UniProt P12527).
T1 construct: endogenous in cells; host or cells: casein-elicited rat peritoneal neutrophils
T1 sequence (P12527 1-673): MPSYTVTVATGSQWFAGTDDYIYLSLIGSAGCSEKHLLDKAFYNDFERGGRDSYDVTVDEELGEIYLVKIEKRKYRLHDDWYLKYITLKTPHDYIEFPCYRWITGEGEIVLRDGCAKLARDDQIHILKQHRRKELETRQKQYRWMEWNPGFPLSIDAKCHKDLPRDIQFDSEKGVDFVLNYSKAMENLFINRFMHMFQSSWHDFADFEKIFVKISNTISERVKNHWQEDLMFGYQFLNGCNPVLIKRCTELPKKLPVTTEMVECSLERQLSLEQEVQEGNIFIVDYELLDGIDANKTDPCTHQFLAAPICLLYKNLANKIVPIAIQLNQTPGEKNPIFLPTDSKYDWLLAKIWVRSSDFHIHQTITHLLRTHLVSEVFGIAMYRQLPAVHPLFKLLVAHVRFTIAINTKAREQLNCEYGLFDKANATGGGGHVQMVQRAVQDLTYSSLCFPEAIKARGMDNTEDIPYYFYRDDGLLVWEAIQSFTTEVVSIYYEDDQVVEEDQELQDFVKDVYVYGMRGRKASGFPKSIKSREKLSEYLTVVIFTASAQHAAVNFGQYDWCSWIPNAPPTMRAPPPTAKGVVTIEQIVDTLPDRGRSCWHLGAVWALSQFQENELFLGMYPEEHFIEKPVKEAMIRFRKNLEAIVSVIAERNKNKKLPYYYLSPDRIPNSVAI
The test can be described thus: 5-lipoxygenase activity (LTB4 in A23187-stimulated peritoneal neutrophils). The test is classed as cell-based. How it is done:
Measurement of 5-lipooxygenase Activity
Modified Safayhi et al.'s method (Safayhi, H., et al., Biochem. Pharmacol. 1985, 34: 2691) was used to this experiment. Peritoneal neutrophil was separated from the rat which was treated with casein solution. The compound was added to 10^7 cells (5×10^6 cells/mL, 2 mL) of neutrophil after 2 minutes Ca^2+ -ionophore, A23187 (1 μg/mL) was added and the mixture was incubared at 37° C. for 10 minutes. The reaction mixture was centrifuged and the supermatant was taken up. The amount of LTB4 in the supermatant was measured by radioimmunoassay.

The subject of test [4] is gastric mucosal damage induced by ethanolic HCl. Put plainly: Gastritis model induced with ethanolic-HCl. To be noted: po, 1 h, rat; for inhibition in vivo at 1 mg/kg: 1 mg/kg p.o.; for inhibition in vivo at 0.3 mg/kg: 0.3 mg/kg p.o.; for inhibition in vivo at 3 mg/kg: 3 mg/kg p.o. It counts as in vivo, SD male rat. How it is done:
Effect on the Gastritis Model Induced with Ethanolic-HCl.
SD male rat(250-350 g) was fasted for 24 hours. The compound was orally administered in suspension of 5% HPMC, and after 1 hour 1.5 mL of 150 mM HCl-80% ethanol was orally administered. After 1 hour the rat was sacrifieced and the stomach was extracted and the ulcer index was measured. The ulcer index was shown by the area of hemorrhage lesion(Mizui, T, et al., Jpn. J. Pharmacol. 1983, 33: 939).

Test [5] has as its system cyclooxygenase. The test can be described thus: Cyclooxygenase activity in HUVEC (PGF1 α synthesis). The test is classed as cell-based. The method, then:
(§4) Measurment of Cyclooxygenase Actvity
(§5) After addition of the compound to cultured HUVEC, the HUVEC was incubated at 37° C., for 30 minutes, then arachidonic acid (final concentration: 30 .rho.M) was added, and the HUVEC was additionally incubated at 37° C. for 15 minutes. The culture medium was taken, and the activity of cyclooxygenase for 6-Keto-PGF1 α or PGE2 was measured by radioimmunoassay (Mitchell, J. A., et al., Pro. Natl. Acad. Sci. USA 1994, 90: 11693-11697).
**SC200 (ug/mL) : Concentration at increasing generation of […]

Another test deals with gastric mucus secretion. Put plainly: Measurement of gastric mucus. The test is classed as in vivo, SD male rat. To be noted: oral, rat. How it is done:
Measurement of Gastric Mucus
The compound was orally administered into SD male rat (200~250 g). After 1 hour the stomach was extracted. The extracted stomach was immediately washed with 10 mL of cold 0.25M sucrose solution. The gastric mucosa was dyed with 0.1% alcian blue solution for 2 hours. After dyeing, the gastric mucosa was washed with 0.25M sucrose solution twice for 15 minutes and for 45 minutes. The dyed gastric mucosa was treated with 10 mL of 30% dioctyl sodium sulfosuccinate solution for 2 hours to extract dyed mucus completely and optical density of aqueous phase was measured spectrophotometrically at 655 nm. The amount of mucus in the gastric mucosa was shown as the amount of alcian blue after calibration (Kitagawa, H., et al., Drug Res. 1986, 36: 1240-1244).

In test [6] the test system is cyclooxygenase. The test can be described thus: Cyclooxygenase activity in HUVEC (PGE2 synthesis). The test is classed as cell-based. The method, then: as §4, §5
**SC200 (μg/mL) : Concentration at increasing generation of […]

On to `C[C@]12C=CC(=O)C=C1CC[C@@H]1[C@@H]2[C@@H](O)C[C@@]2(C)[C@H]1CC[C@]2(O)C(=O)CO` [prednisolone, reference compound], for which the lesion scores in the test on TNBS-induced colitis [1] (1 mg/kg rectally) turned out to be 0.83.
As to `COc1ccc(-c2cc(=O)c3c(OC)c(OC)c(OCC(=O)[O-])cc3o2)cc1OC.[Na+]` [7-carboxymethyloxy-3',4',5,6-tetramethoxy flavone sodium salt], the lesion scores stood at 1.3 in the test on TNBS-induced colitis [2] (1 mg/kg p.o.), 0.8 with TNBS-induced colitis [2] (10 mg/kg p.o.), 2.56 in the test with TNBS-induced colitis [1] (0.3 mg/kg rectally) and 2.60 in the test with TNBS-induced colitis [1] (3 mg/kg rectally). Besides, the adhesion degree in the test with TNBS-induced colitis [2] (1 mg/kg p.o.) is reported as 0.5; with TNBS-induced colitis [2] (10 mg/kg p.o.), 0.6. Besides, the “dilation and extention degree” value with TNBS-induced colitis [2] (1 mg/kg p.o.) is 0.3; in the test on TNBS-induced colitis [2] (10 mg/kg p.o.), 0.4. Moreover, the entries for the “inhibiting% (gastric lesion)” value in test [3] (0.3 mg/kg p.o.), in test [3] (3 mg/kg p.o.) and in test [3] (10 mg/kg p.o.) were 10%, 29% and 42%, respectively.
What is called IC50 is the concentration needed to halve the response being measured. At 5-lipoxygenase, `CCCCCOc1cc2c(=O)cc(-c3ccc(OC)c(OC)c3)oc2cc1OCC(=O)O` [7-carboxymethyloxy-3',4'-dimethoxy-6-n-pentyloxy flavone] had an IC50 of 2.8 µM.
With `COc1ccc(-c2cc(=O)c3c(OC)cc(OCC(=O)[O-])cc3o2)cc1OC.[Na+]` [7-carboxymethyloxy-3',4',5-trimethoxy flavone sodium salt], the “inhibiting% (gastric lesion)” value is 4% in test [3] (0.3 mg/kg p.o.), 83% in test [3] (3 mg/kg p.o.) and 80% in test [3] (10 mg/kg p.o.). Moreover, the lesion scores with TNBS-induced colitis [1] (0.3 mg/kg rectally) is on record as 4.43; in the test with TNBS-induced colitis [1] (3 mg/kg rectally), 0.86.
In general, inhibition in vivo refers to the share of the control response that was lost under treatment. A lower inhibition in vivo goes with a response near the control. As for `CCCCOc1c(OCC(=O)O)cc2oc(-c3ccc(OC)c(OC)c3)cc(=O)c2c1O` [7-carboxymethyloxy-5-hydroxy-6-n-butyloxy-3',4'-dimethoxy flavone], testing at 0.1 mg/kg in test [4] (0.1 mg/kg p.o.) gave an inhibition in vivo of 43%. The compound further returned an inhibition in vivo at 1 mg/kg in test [4] of 61%. This compound displayed an inhibition in vivo at 10 mg/kg in test [4] (10 mg/kg p.o.) of 63%. In addition, the “SC200, concentration increasing generation of PGF1α to 200%” value in the test with cyclooxygenase [5] amounted to 2.41 µg/mL. For the same compound, at 5-lipoxygenase, the IC50 is 26.3 µM.
In test [4], `COc1ccc(-c2cc(=O)c3c(OC)cc(OCC(=O)O)cc3o2)cc1OC` [7-carboxymethyloxy-3',4',5-trimethoxy flavone] came in with an inhibition in vivo at 0.3 mg/kg of 58%, an inhibition in vivo at 1 mg/kg of 68% and an inhibition in vivo at 3 mg/kg of 85%. The “gastric mucus secretion, % Control” value with gastric mucus secretion (0.3 mg/kg) was determined as 126.5 % Control. The “gastric mucus secretion, % Control” value in the test with gastric mucus secretion (3 mg/kg) was 122.8 % Control. Also, in the test on gastric mucus secretion (30 mg/kg), the “gastric mucus secretion, % Control” value came out at 117.9 % Control. Besides, in the test with cyclooxygenase [5], the “SC200, concentration increasing generation of PGF1α to 200%” value is 14.35 µg/mL. This compound gave an IC50 against 5-lipoxygenase of 35.5 µM.
In test [4], `COc1ccc(C2CC(=O)c3c(cc(O)c(OC)c3O)O2)cc1OC` (stereo not drawn) [5,7-dihydroxy-3',4',6-trimethoxy flavanone] came in with an inhibition in vivo at 0.3 mg/kg of 5%, an inhibition in vivo at 1 mg/kg of 49% and an inhibition in vivo at 3 mg/kg of 56%. The “SC200, concentration increasing generation of PGF1α to 200%” value in the test with cyclooxygenase [5] was determined as 34.6 µg/mL. Also, in the test with cyclooxygenase [6], the “SC200, concentration increasing generation of PGE2 to 200%” value is 3.9 µg/mL.
